Data published in PubChem BioAssay AID1745844 (Carcinogenic Potency Database (CPDB), 2022).
Activity calls are given as the source filed them. How the calls were made is not given here.

Tested on: rodent lifetime carcinogenesis bioassay, tumor incidence TD50
Assay: chronic cancer bioassays in animals – CPDB, compiled studies (AID 1745844)

## CC1=C(/C=C/C(C)=C/C=C/C(C)=C/C=C/C=C(C)/C=C/C=C(C)/C=C/C2=C(C)CCCC2(C)C)C(C)(C)CCC1
mouse, strain Charles River CD1, females, in feed, site: liver, lesion: hepatocellular adenoma, dosed 105 weeks, study length 105 weeks
  TD50: 15900 mg/kg/day (inactive)
mouse, strain Charles River CD1, females, in feed, site: liver, lesion: hepatocellular carcinoma, dosed 105 weeks, study length 105 weeks
  carcinogen call: negative (inactive)
mouse, strain Charles River CD1, females, in feed, site: lung, lesion: adenocarcinoma, dosed 105 weeks, study length 105 weeks
  carcinogen call: negative (inactive)
mouse, strain Charles River CD1, females, in feed, site: lung, lesion: adenoma, dosed 105 weeks, study length 105 weeks
  TD50: 93600 mg/kg/day (inactive)
mouse, strain Charles River CD1, males, in feed, site: liver, lesion: hepatocellular adenoma, dosed 105 weeks, study length 105 weeks
  carcinogen call: negative (inactive)
mouse, strain Charles River CD1, males, in feed, site: liver, lesion: hepatocellular carcinoma, dosed 105 weeks, study length 105 weeks
  TD50: 49700 mg/kg/day (inactive)
mouse, strain Charles River CD1, males, in feed, site: lung, lesion: adenocarcinoma, dosed 105 weeks, study length 105 weeks
  TD50: 26400 mg/kg/day (inactive)
mouse, strain Charles River CD1, males, in feed, site: lung, lesion: adenoma, dosed 105 weeks, study length 105 weeks
  TD50: 71400 mg/kg/day (inactive)

## Cn1cc[nH]c1=S
rat, strain Harlan, females, in feed, site: thyroid gland, lesion: follicular adenocarcinoma, dosed 104 weeks, study length 104 weeks
  TD50: 9.47 mg/kg/day
rat, strain Harlan, females, in feed, site: thyroid gland, lesion: follicular-cell adenoma, dosed 104 weeks, study length 104 weeks
  TD50: 1.57 mg/kg/day
rat, strain Harlan, males, in feed, site: thyroid gland, lesion: follicular adenocarcinoma, dosed 104 weeks, study length 104 weeks
  TD50: 37.6 mg/kg/day
rat, strain Harlan, males, in feed, site: thyroid gland, lesion: follicular-cell adenoma, dosed 104 weeks, study length 104 weeks
  TD50: 0.9 mg/kg/day

## Nc1nnc(-c2ccc([N+](=O)[O-])o2)o1
rat, strain Sprague-Dawley, females, in feed, site: any site (literature study), lesion: several types, types named in the paper, dosed 46 weeks, study length 66 weeks
  TD50: 2.74 mg/kg/day
rat, strain Sprague-Dawley, females, in feed, site: forestomach, lesion: squamous-cell papilloma, dosed 46 weeks, study length 66 weeks
  TD50: 37 mg/kg/day
rat, strain Sprague-Dawley, females, in feed, site: kidney/pelvis, lesion: transitional-cell carcinoma, dosed 46 weeks, study length 66 weeks
  TD50: 45.2 mg/kg/day
rat, strain Sprague-Dawley, females, in feed, site: lung, lesion: alveolar-cell carcinoma, dosed 46 weeks, study length 66 weeks
  TD50: 242 mg/kg/day
rat, strain Sprague-Dawley, females, in feed, site: mammary gland, lesion: adenocarcinoma, dosed 46 weeks, study length 66 weeks
  TD50: 7.98 mg/kg/day
rat, strain Sprague-Dawley, females, in feed, site: mammary gland, lesion: several types, types named in the paper, dosed 46 weeks, study length 66 weeks
  TD50: 3.67 mg/kg/day

## Nc1ccc(NC(=O)c2ccc(N)cc2)cc1
mouse, strain BALB/cLacDp, females, in feed, site: liver, lesion: several types, types named in the paper, dosed 60 weeks, study length 132 weeks
  carcinogen call: negative (inactive)
mouse, strain BALB/cLacDp, females, in feed, site: lung, lesion: several types, types named in the paper, dosed 60 weeks, study length 132 weeks
  TD50: 360 mg/kg/day (inactive)
mouse, strain BALB/cLacDp, males, in feed, site: liver, lesion: several types, types named in the paper, dosed 60 weeks, study length 132 weeks
  carcinogen call: negative (inactive)
mouse, strain BALB/cLacDp, males, in feed, site: lung, lesion: several types, types named in the paper, dosed 60 weeks, study length 132 weeks
  carcinogen call: negative (inactive)

## NC(=O)CCCCn1ccc(NC(N)=NCC(F)(F)F)n1
mouse, strain B6C3F1, females, in feed, site: gastric mucosa, lesion: carcinoid tumor, malignant, dosed 91 weeks, study length 91 weeks
  TD50: 956 mg/kg/day
mouse, strain B6C3F1, males, in feed, site: gastric mucosa, lesion: carcinoid tumor, malignant, dosed 91 weeks, study length 91 weeks
  TD50: 401 mg/kg/day
rat, strain Sprague-Dawley, females, in feed, site: gastric mucosa, lesion: carcinoid tumor, malignant, dosed 104 weeks, study length 104 weeks
  TD50: 1350 mg/kg/day
rat, strain Sprague-Dawley, males, in feed, site: gastric mucosa, lesion: carcinoid tumor, malignant, dosed 104 weeks, study length 104 weeks
  TD50: 1030 mg/kg/day

## CCCc1c(OCCCCc2nn[nH]n2)ccc(C(C)=O)c1O
mouse, strain B6C3F1, females, in feed, site: liver, lesion: hepatocellular adenoma, dosed 104 weeks, study length 104 weeks
  TD50: 369 mg/kg/day
mouse, strain B6C3F1, females, in feed, site: liver, lesion: hepatocellular carcinoma, dosed 104 weeks, study length 104 weeks
  TD50: 112 mg/kg/day
mouse, strain B6C3F1, males, in feed, site: liver, lesion: hepatocellular adenoma, dosed 104 weeks, study length 104 weeks
  TD50: 2740 mg/kg/day
mouse, strain B6C3F1, males, in feed, site: liver, lesion: hepatocellular carcinoma, dosed 104 weeks, study length 104 weeks
  TD50: 426 mg/kg/day

## C[C@H](CCC(=O)O)[C@H]1CC[C@H]2[C@@H]3CC[C@@H]4C[C@H](O)CC[C@]4(C)[C@H]3CC[C@]12C
mouse, strain B6C3F1, females, by gavage, site: any site (literature study), lesion: several types, types named in the paper, dosed 103 weeks, study length 105 weeks
  TD50: 960 mg/kg/day (inactive)
mouse, strain B6C3F1, females, by gavage, site: liver, lesion: hepatocellular adenoma + hepatocellular carcinoma + neoplastic nodule, dosed 103 weeks, study length 105 weeks
  TD50: 1140 mg/kg/day
mouse, strain B6C3F1, females, by gavage, site: lung, lesion: alveolar/bronchiolar adenoma + alveolar/bronchiolar carcinoma, dosed 103 weeks, study length 105 weeks
  TD50: 1030 mg/kg/day
mouse, strain B6C3F1, males, by gavage, site: any site (literature study), lesion: several types, types named in the paper, dosed 103 weeks, study length 105 weeks
  carcinogen call: negative (inactive)
mouse, strain B6C3F1, males, by gavage, site: lung, lesion: alveolar/bronchiolar adenoma + alveolar/bronchiolar carcinoma, dosed 103 weeks, study length 105 weeks
  TD50: 834 mg/kg/day
rat, strain Fischer 344, females, by gavage, site: any site (literature study), lesion: several types, types named in the paper, dosed 103 weeks, study length 104 weeks
  TD50: 686 mg/kg/day (inactive)
rat, strain Fischer 344, females, by gavage, site: liver, lesion: hepatocellular adenoma + hepatocellular carcinoma + neoplastic nodule, dosed 103 weeks, study length 104 weeks
  TD50: 1890 mg/kg/day
rat, strain Fischer 344, males, by gavage, site: any site (literature study), lesion: several types, types named in the paper, dosed 103 weeks, study length 104 weeks
  TD50: 501 mg/kg/day (inactive)
rat, strain Fischer 344, males, by gavage, site: liver, lesion: hepatocellular adenoma + hepatocellular carcinoma + neoplastic nodule, dosed 103 weeks, study length 104 weeks
  TD50: 2250 mg/kg/day

## O=C(O)c1ccc([N+](=O)[O-])cc1
mouse, strain B6C3F1, females, in feed, site: any site (literature study), lesion: several types, types named in the paper, dosed 103 weeks, study length 104 weeks
  TD50: 3160 mg/kg/day (inactive)
mouse, strain B6C3F1, females, in feed, site: lung, lesion: alveolar/bronchiolar adenoma + alveolar/bronchiolar carcinoma, dosed 103 weeks, study length 104 weeks
  TD50: 2330 mg/kg/day
mouse, strain B6C3F1, males, in feed, site: any site (literature study), lesion: several types, types named in the paper, dosed 103 weeks, study length 104 weeks
  carcinogen call: negative (inactive)
mouse, strain B6C3F1, males, in feed, site: lung, lesion: alveolar/bronchiolar adenoma + alveolar/bronchiolar carcinoma, dosed 103 weeks, study length 104 weeks
  TD50: 4350 mg/kg/day
rat, strain Fischer 344, females, in feed, site: any site (literature study), lesion: several types, types named in the paper, dosed 103 weeks, study length 104 weeks
  TD50: 373 mg/kg/day
rat, strain Fischer 344, females, in feed, site: clitoral gland, lesion: adenoma + adenoma, bilateral + carcinoma + carcinoma, bilateral, dosed 103 weeks, study length 104 weeks
  TD50: 287 mg/kg/day
rat, strain Fischer 344, females, in feed, site: clitoral gland, lesion: adenoma + adenoma, bilateral, dosed 103 weeks, study length 104 weeks
  TD50: 439 mg/kg/day
rat, strain Fischer 344, females, in feed, site: clitoral gland, lesion: carcinoma + carcinoma, bilateral, dosed 103 weeks, study length 104 weeks
  TD50: 1080 mg/kg/day
rat, strain Fischer 344, females, in feed, site: uterus, lesion: endometrial stromal polyp + endometrial stromal sarcoma, dosed 103 weeks, study length 104 weeks
  TD50: 197 mg/kg/day
rat, strain Fischer 344, females, in feed, site: uterus, lesion: endometrial stromal polyp, dosed 103 weeks, study length 104 weeks
  TD50: 220 mg/kg/day
rat, strain Fischer 344, males, in feed, site: preputial gland, lesion: carcinoma + carcinoma, bilateral, dosed 103 weeks, study length 104 weeks
  TD50: 926 mg/kg/day (inactive)

## CCCOC(=O)C1c2cc3c(cc2CC(C)C1C(=O)OCCC)OCO3 (stereo unspecified)
mouse, strain B6AKF1, females, oral dosing, site: any site (literature study), lesion: several types, types named in the paper, dosed 76 weeks, study length 76 weeks
  TD50: 4390 mg/kg/day (inactive)
mouse, strain B6AKF1, females, oral dosing, site: liver, lesion: hepatoma, dosed 76 weeks, study length 76 weeks
  carcinogen call: negative (inactive)
mouse, strain B6AKF1, females, oral dosing, site: lung, lesion: adenoma, dosed 76 weeks, study length 76 weeks
  TD50: 4690 mg/kg/day (inactive)
mouse, strain B6AKF1, males, oral dosing, site: any site (literature study), lesion: several types, types named in the paper, dosed 76 weeks, study length 76 weeks
  carcinogen call: negative (inactive)
mouse, strain B6AKF1, males, oral dosing, site: liver, lesion: hepatoma, dosed 76 weeks, study length 76 weeks
  carcinogen call: negative (inactive)
mouse, strain B6AKF1, males, oral dosing, site: lung, lesion: adenoma, dosed 76 weeks, study length 76 weeks
  carcinogen call: negative (inactive)
mouse, strain B6C3F1, females, oral dosing, site: any site (literature study), lesion: one or several types, types not named, dosed 76 weeks, study length 76 weeks
  carcinogen call: negative (inactive)
mouse, strain B6C3F1, females, oral dosing, site: liver, lesion: hepatoma, dosed 76 weeks, study length 76 weeks
  carcinogen call: negative (inactive)
mouse, strain B6C3F1, females, oral dosing, site: lung, lesion: several types, types named in the paper, dosed 76 weeks, study length 76 weeks
  carcinogen call: negative (inactive)
mouse, strain B6C3F1, males, oral dosing, site: any site (literature study), lesion: several types, types named in the paper, dosed 76 weeks, study length 76 weeks
  TD50: 374 mg/kg/day (inactive)
mouse, strain B6C3F1, males, oral dosing, site: liver, lesion: hepatoma, dosed 76 weeks, study length 76 weeks
  TD50: 1050 mg/kg/day (inactive)
mouse, strain B6C3F1, males, oral dosing, site: lung, lesion: adenoma, dosed 76 weeks, study length 76 weeks
  TD50: 4650 mg/kg/day (inactive)

## COC(=O)C1=C(C)NC(C)=C(C(=O)OCCN2CCN(C(c3ccccc3)c3ccccc3)CC2)C1c1cccc([N+](=O)[O-])c1 (stereo unspecified)
mouse, strain ICR, females, in feed, site: liver, lesion: hepatocellular adenoma, dosed 78 weeks, study length 78 weeks
  TD50: 545 mg/kg/day (inactive)
mouse, strain ICR, females, in feed, site: lung, lesion: alveolar/bronchiolar adenoma, dosed 78 weeks, study length 78 weeks
  TD50: 438 mg/kg/day (inactive)
mouse, strain ICR, males, in feed, site: liver, lesion: hepatocellular adenoma, dosed 78 weeks, study length 78 weeks
  carcinogen call: negative (inactive)
mouse, strain ICR, males, in feed, site: liver, lesion: hepatocellular carcinoma, dosed 78 weeks, study length 78 weeks
  carcinogen call: negative (inactive)
mouse, strain ICR, males, in feed, site: lung, lesion: alveolar/bronchiolar adenoma, dosed 78 weeks, study length 78 weeks
  carcinogen call: negative (inactive)
rat, strain Charles River CD (Sprague-Dawley), females, in feed, site: liver, lesion: hepatocellular adenoma, dosed 104 weeks, study length 104 weeks
  TD50: 157 mg/kg/day (inactive)
rat, strain Charles River CD (Sprague-Dawley), females, in feed, site: liver, lesion: hepatocellular carcinoma, dosed 104 weeks, study length 104 weeks
  carcinogen call: negative (inactive)
rat, strain Charles River CD (Sprague-Dawley), males, in feed, site: liver, lesion: hepatocellular adenoma, dosed 104 weeks, study length 104 weeks
  TD50: 8240 mg/kg/day (inactive)
rat, strain Charles River CD (Sprague-Dawley), males, in feed, site: liver, lesion: hepatocellular carcinoma, dosed 104 weeks, study length 104 weeks
  TD50: 405 mg/kg/day (inactive)
